PMC2914114 (Molecular pharmaceutics, 2010)

What was measured:
Permeability = conditions: human, pH 7.4
[1] = calculated from Stokes-Einstein equation for equivalent spheres; cited from earlier work

Row | SMILES | Papp at 2 h, 0.25 µCi/mL (Permeability) [nm/s] | Molecular Radius [1] [Å] | PM (permeability across the monolayer itself) (hCMEC/D3 cells; pH 7.4) | A-B versus B-A relative permeability (PM) (hCMEC/D3 cells)
1 | OC[C@@H](O)[C@@H](O)[C@H](O)[C@H](O)CO [[^14C] Mannitol, Mannitol] | 247 ± 2 | 4.10 |  | 
2 | NC(N)=O [[^14C] Urea, Urea] |  | 2.67 | 5.65 ± 0.08 × 10^−5 cm/sec | 
3 | CC(C)[C@H](N)C(=O)OCCOCn1cnc2c(=O)[nH]c(N)nc21 [valacyclovir] |  |  |  | no differences between the A-B and B-A relative permeabilities
